Data set [1] in a line: Prediction of human PK and exposure by allometric scaling; HED calculation. The text has this: Protocol CC- 90010- ST-001 Celgene Corporation
Figure 3: CC- 90010- mediated Tumor Growth Inhibition of GBM3 (Glioblastoma Multiforme Patient-derived Xenograft) with and without Temozolomide […]
BID = twice daily; IP = investigational product (CC-90010); PO = by mouth; QD = once daily; SEM = standard […]
Source: Unpublished data from Celgene Corporation.
1.2.2. Nonclinical Pharmacokinetics and Drug Metabolism
In vitro and in vivo studies have been conducted to characterize the absorption, PK, distribution, metabolism and elimination of CC-90010. Robust and reproducible bioanalytical methods for the quantitation of CC-90010 levels were developed and used in PK and toxicokinetic studies.
Human PK parameters and exposures were predicted using allometric scaling.
Pharmacokinetics and oral bioavailability of CC-90010 were evaluated in Sprague-Dawley rats […]
clearance than females. […]
The metabolism of CC-90010 was evaluated in vitro using hepatocytes from various species (mouse, rat, rabbit, dog, monkey, and human). […]
Based on the doses and exposures at which the principal treatment-related effects occurred in the GLP-compliant, 4-week rat and dog studies, both species are considered of similar sensitivity to the toxicities associated with CC-90010 administration. […] This CC-90010 dose was calculated using the approach described in the ICH S9 Guideline entitled “Nonclinical Evaluation for […]

For data set [2], the system named is OCI-LY-3 (ABC DLBCL). Set-up: method as in Report CC-90010-Pharm-1018. To be noted: OCI-LY-3, Experiment 1, ref Report CC-90010-Pharm-1018; read-out: absolute IC50, proliferation; cited from earlier work.
In data set [3] the test system is BCRP, MRP2, OAT1, OAT3, OATP1B1, OATP1B3 and OCT2. Details: method as in Investigator's Brochure. To be noted: MRP2, OAT1, OAT3, OATP1B1, OATP1B3 and OCT2, ref Investigator's Brochure; cited from earlier work.
For data set [4], the system named is OCI-LY-19 (GCB DLBCL). Details: method as in Report CC-90010-Pharm-1018. To be noted: OCI-LY-19, Experiment 1, ref Report CC-90010-Pharm-1018; read-out: absolute IC50, proliferation; cited from earlier work.
Data set [5] in a line: Plasma pharmacokinetics and food effect, part C. The data set is classed as in vivo, human. The settings on record: 45 mg/day; for AUC(0-t) / Cmax / Tmax / AUC(0-inf) / half-life / Vd/F: human, plasma, oral; for Cmax: n = 15, read-out: Cmax, GM (% GCV); for Tmax: n = 15, read-out: Median tmax (range); for AUC(0-inf): n = 15, read-out: AUCinf, GM (% GCV); for half-life: n = 15, read-out: Mean t½ (% CV) (converted); for Vd/F: n = 15, read-out: Vss/F, GM (% GCV). The protocol:
Response was assessed using Response Evaluation Criteria in Solid Tumors (RECIST) v1.1[54] in patients with solid tumors, International Working Group criteria in patients with DLBCL[55], and Response Assessment in Neuro-Oncology (RANO) criteria[56] in patients with CNS tumors (astrocytoma and glioblastoma). For patients with BCC, the response was assessed using a combination of radiological assessment of target lesions per RECIST v1.1, digital clinical photography assessed per World Health Organization (WHO) criteria, and punch biopsies to confirm CR. PK parameters assessed included Cmax, tmax, AUC, t½, apparent clearance (CL/F), and apparent volume of distribution (Vz/F).
Serial blood samples for PK and pharmacodynamic analyses were collected for each dosing schedule after the first and last doses in cycle 1. Additional blood samples for assessment of the food effect on trotabresib PK in part C were collected during cycle 2. The food effect–evaluable population comprised all patients with adequate PK data to allow calculation of trotabresib AUC from time 0 (day 1) to day 22 from both the fed and fasted treatment periods and who had completed a 4-h post-dose fast during the fasted cycle or consumed the entire high-fat, high-calorie meal during the fed cycle and had received all trotabresib doses during both treatment periods.

Where two headings read alike, the source gives them in different places.

This is an account of results in PMC10011554, “BET inhibitor trotabresib in heavily pretreated patients with solid tumors and diffuse large B-cell lymphomas” (Nature Communications, 2023).

In the case of `Cn1cc(-c2cc(S(C)(=O)=O)ccc2OCC2CC2)c2ccccc2c1=O` [trotabresib], the HED in data set [1] (from dog HNSTD) was 2.1 mg base/kg; in data set [1] (from rat STD10), 3.2 mg base/kg. For the same molecule, the IC50 is 510 nM in data set [2] and 220 nM in data set [4]. The transporter substrate status result in data set [3] was “not a substrate”. Besides, the “Clss/F, GM (% GCV)” value in data set [5] (day 4, fasted, n = 15) is listed as 2.60 (25.89) L/h; in data set [5] (day 4, fed, n = 15) it was 2.65 (28.52) L/h. The “Median tmax (range)” value in data set [5] (day 4, fasted, n = 15) is 1.50 (1.00–3.00) h. In addition, the AUC(0-t) in data set [5] (cycle 1 day 1, fasted, n = 14, read-out: AUC0–24, GM (% GCV)) is 6650 ng·h/mL; in data set [5] (day 4, fasted, n = 15, read-out: AUC0–24, GM (% GCV)), 17300 ng·h/mL; in data set [5] (day 4, fasted, n = 15, read-out: AUClast, GM (% GCV)) it was 65100 ng·h/mL; in data set [5] (day 4, fed, n = 14, read-out: AUC0–24, GM (% GCV)), 16800 ng·h/mL; in data set [5] (day 4, fed, n = 15, read-out: AUClast, GM (% GCV)), 65600 ng·h/mL. Also, the Cmax stood at 560 ng/mL in data set [5] (cycle 1 day 1, fasted); 1120 ng/mL in data set [5] (day 4, fasted); 904 ng/mL in data set [5] (day 4, fed). The Tmax is 1.55 h in data set [5] (cycle 1 day 1, fasted) and 4 h in data set [5] (day 4, fed). For the same molecule, the AUC(0-inf) is 66500 ng·h/mL in data set [5] (day 4, fasted) and 67200 ng·h/mL in data set [5] (day 4, fed). Further, the half-life in data set [5] (day 4, fasted) is 69.1 h; in data set [5] (day 4, fed) it was 67.8 h. Also, the Vd/F in data set [5] (day 4, fasted) was 235 L; in data set [5] (day 4, fed), 228 L.
